Assay results reported in patent US10519177B2, “Heterocyclic compounds and uses thereof” (Plexxikon Inc., priority 2013, dated 2019).
pIC50: −log10 of the molar value.

How the values were obtained:
bromodomain = experiment: at least one of the bromodomain cell assays of Example 57; type: cell-based; details: at least one of the bromodomain cell assays described in Example 57; read-out: IC50 in at least one of the bromodomain cell assays
MV-4-11 cells = experiment: Oncology cell growth assay MV-4-11 (CellTiter Glo); type: cell-based; details: Homo sapiens, MV4-11, 72 h; MV-4-11, 3d growth; read-out: Cell activity (IC50 μM) MV-4-11 3d-Growth
Excerpt: Published bromodomain inhibitors JQ1 and iBET 151 have shown activity in variety of cancer cells such leukemia and lymphoma, multiple myeloma cells, NUT midline carcinoma and glioblastoma cells (Dawson M A et al. 2011; Delmore J E 2011; Chen Z et al. 2013; Filippakopoulos P et al. 2010; Mertz J A et al. 2011; Ott C J et al. 2012). In this study, we test compounds in different cancer cell lines. MV-4-11 and MOLM-13 are AML cell lines harboring a MLL-AF4 and MLL-AF9 translocation, respectively. MM.1S is a multiple myeloma cell line. SK-N-AS, IMR-32 and SK-N-BE(2) are neuroblastoma cell lines. IMR-32 and SK-N-BE(2) cell lines harbor MYCN amplifications.
MV-4-11, MM.1S, IMR-32, SK-N-AS and SK-N-BE(2) were obtained from ATCC (IL, USA) and MOLM-13 were purchased from DSMZ (Braunschweig, German). Cells are cultured as recommended by their sources. For growth inhibition studies 3000 cells are seeded in wells of a 96-well plate in 75 μL of culture media. After several hours, growth media containing compounds of formula (I) are added to the wells. Compound at a maximal concentration of 5 mM was serially diluted 1:3 for a total of 8 point titration with DMSO as a control. A 1 μL aliquot of each dilution point is added to 249 μL growth media and 75 μL is added to each well containing cells, providing 10 μM compound at the maximum concentration point. The final concentration of DMSO in all wells is 0.2%. Cells are incubated for 72 hours, and 25 μL of CellTiter Glo Reagent (Promega GA, USA) is added to each well. Plates are shaken for approximately 10 minutes and chemiluminescent signal is read on Tecan microplate reader. The measured luminescence correlates directly with cell number.
All data is normalized to the mean of eight DMSO high control wells on each plate. A four parameter curve fit of the following formula was then applied: Y=a+(b−a)/(1+(x/c)^d) Where ‘a’ is the minimum, ‘b’ is the maximum, ‘c’ is the pIC50 and ‘d’ is the Hill slope. […] Myc Reporter Assay

| SMILES | pIC50 (bromodomain) | IC50 (MV-4-11 cells) |
| --- | --- | --- |
| Cc1noc(C)c1-c1cnc2c(c1)c(C(c1ccccc1)c1ccccc1)cn2-c1ccc(C(=O)O)cn1 [P-0742, 6-[3-benzhydryl-5-(3,5-dimethylisoxazol-4-yl)pyrrolo[2,3-b]pyridin-1-yl]pyridine-3-carboxylic acid] | > 5.00 | – |
| COC(=O)c1ccc(-c2cn(C(c3ccccc3)c3ccccc3)c3cc(-c4c(C)noc4C)cnc23)cc1 [P-0617, methyl 4-[1-benzhydryl-6-(3,5-dimethylisoxazol-4-yl)pyrrolo[3,2-b]pyridin-3-yl]benzoate] | > 5.00 | – |
| Cc1noc(C)c1-c1cnc2c(-c3ccc(C4(C(=O)O)CC4)cc3)cn(CC3CCOCC3)c2c1 [P-0772, 1-[4-[6-(3,5-dimethylisoxazol-4-yl)-1-(tetrahydropyran-4-ylmethyl)pyrrolo[3,2-b]pyridin-3-yl]phenyl]cyclopropanecarboxylic acid] | > 5.00 | – |
| Cc1ccc(-c2cn([C@@H](C)c3ccccn3)c3cc(-c4cc(C)c(=O)n(C)c4)cnc23)cc1 [P-0791, 1,3-dimethyl-5-[3-(p-tolyl)-1-[(1S)-1-(2-pyridyl)ethyl]pyrrolo[3,2-b]pyridin-6-yl]pyridin-2-one] | > 5.00 | – |
| Cc1noc(C)c1-c1ccc2c(-c3ccc(C#N)nc3)cn([C@H](c3ccccc3)c3ccccn3)c2c1 [P-0758, 5-[6-(3,5-dimethylisoxazol-4-yl)-1-[(R)-phenyl(2-pyridyl)methyl]indol-3-yl]pyridine-2-carbonitrile] | > 5.00 | – |
| COc1cc(-c2cn(CC3CCC(F)(F)CC3)c3cc(-c4c(C)noc4C)ccc23)ccc1C(=O)O [P-0746, 4-[1-[(4,4-difluorocyclohexyl)methyl]-6-(3,5-dimethylisoxazol-4-yl)indol-3-yl]-2-methoxy-benzoic acid] | > 5.00 | – |
| Cc1noc(C)c1-c1cnc2[nH]cc(C(c3ccccc3)c3ccccc3)c2c1 [P-0738, 4-(3-benzhydryl-1H-pyrrolo[2,3-b]pyridin-5-yl)-3,5-dimethyl-isoxazole] | > 5.00 | – |
| Cc1cc(-c2cnc3c(-c4ccc(C(=O)OC(C)(C)C)cc4)cn(CC4CCC(F)(F)CC4)c3c2)cn(C)c1=O [P-0612, tert-butyl 4-[1-[(4,4-difluorocyclohexyl)methyl]-6-(1,5-dimethyl-6-oxo-3-pyridyl)pyrrolo[3,2-b]pyridin-3-yl]benzoate] | > 5.00 | – |
| Cc1noc(C)c1-c1cnc2c(-c3ccc(CO)cc3)cn([C@@H](c3ccccc3)c3ccccn3)c2c1 [P-0713, [4-[6-(3,5-dimethylisoxazol-4-yl)-1-[(S)-phenyl(2-pyridyl)methyl]pyrrolo[3,2-b]pyridin-3-yl]phenyl]methanol] | > 5.00 | – |
| Cc1noc(C)c1-c1cnc2c(-c3ccc([N+](=O)[O-])nc3)cn([C@H](c3ccccc3)c3ccccn3)c2c1 [P-0730, 3,5-dimethyl-4-[3-(6-nitro-3-pyridyl)-1-[(R)-phenyl(2-pyridyl)methyl]pyrrolo[3,2-b]pyridin-6-yl]isoxazole] | > 5.00 | – |
| Cc1ccc(-c2cn(CC3CC4CC4C3)c3cc(-c4c(C)noc4C)cnc23)cc1 (stereo not drawn) [P-0795, 4-[1-(3-bicyclo[3.1.0]hexanylmethyl)-3-(p-tolyl)pyrrolo[3,2-b]pyridin-6-yl]-3,5-dimethyl-isoxazole] | > 5.00 | – |
| Cc1noc(C)c1-c1cnc2c(-c3ccc(C(=O)O)cc3)cn(CC3(C)COC3)c2c1 [P-0767, 4-[6-(3,5-dimethylisoxazol-4-yl)-1-[(3-methyloxetan-3-yl)methyl]pyrrolo[3,2-b]pyridin-3-yl]benzoic acid] | > 5.00 | – |
| COc1cc(-c2cn(CC3(C)CCCCC3)c3cc(-c4c(C)noc4C)cnc23)ccc1C(=O)O [P-0780, 4-[6-(3,5-dimethylisoxazol-4-yl)-1-[(1-methylcyclohexyl)methyl]pyrrolo[3,2-b]pyridin-3-yl]-2-methoxy-benzoic acid] | > 5.00 | – |
| Cc1noc(C)c1-c1cnc2c(-c3ccc(C4(C(=O)O)CC4)cc3)cn(CC3CCCCC3)c2c1 [P-0702, 1-[4-[1-(cyclohexylmethyl)-6-(3,5-dimethylisoxazol-4-yl)pyrrolo[3,2-b]pyridin-3-yl]phenyl]cyclopropanecarboxylic acid] | > 5.00 | – |
| Cc1noc(C)c1-c1cnc2c(-c3ccc(C(=O)OC(C)C)cc3)cn([C@@H](c3ccccc3)c3ccccn3)c2c1 [P-0717, isopropyl 4-[6-(3,5-dimethylisoxazol-4-yl)-1-[(S)-phenyl(2-pyridyl)methyl]pyrrolo[3,2-b]pyridin-3-yl]benzoate] | > 5.00 | – |
| Cc1nnn(C)c1-c1cnc2c(-c3ccc(CC(=O)O)cc3)cn(CC3CCC(F)(F)CC3)c2c1 [P-0811, 2-[4-[1-[(4,4-difluorocyclohexyl)methyl]-6-(3,5-dimethyltriazol-4-yl)pyrrolo[3,2-b]pyridin-3-yl]phenyl]acetic acid] | > 5.00 | – |
| Cc1noc(C)c1-c1cnc2c(c1)c(C(c1ccccn1)c1ccccn1)cn2-c1ccc(C(=O)O)cc1 [P-0735, 4-[3-[bis(2-pyridyl)methyl]-5-(3,5-dimethylisoxazol-4-yl)pyrrolo[2,3-b]pyridin-1-yl]benzoic acid] | > 5.00 | – |
| Cc1nnn(C)c1-c1cnc2c(-c3ccc(C(C)(C)C)cc3)cn(CC3CCC(F)(F)CC3)c2c1 [P-0810, 3-(4-tert-butylphenyl)-1-[(4,4-difluorocyclohexyl)methyl]-6-(3,5-dimethyltriazol-4-yl)pyrrolo[3,2-b]pyridine] | > 5.00 | – |
| Cc1noc(C)c1-c1ccc2c(-c3ccc(B(O)O)cc3)cn(CC3CCC(F)(F)CC3)c2c1 [P-0749, [4-[1-[(4,4-difluorocyclohexyl)methyl]-6-(3,5-dimethylisoxazol-4-yl)indol-3-yl]phenyl]boronic acid] | > 5.00 | – |
| Cc1noc(C)c1-c1ccc2c(-c3cnn(C)c3)cn(S(=O)(=O)C3CCCC3)c2c1 [P-0231, 4-[1-cyclopentyl-sulfonyl-3-(1-methyl-pyrazol-4-yl)indol-6-yl]-3,5-dimethyl-isoxazole] | > 5.00 | – |
| Cn1cc(-c2ccc3c(-c4ccc(C(=O)O)cc4)cn(CC4CCCCC4)c3c2)cc(Cl)c1=O [P-0763, 4-[6-(5-chloro-1-methyl-6-oxo-3-pyridyl)-1-(cyclohexylmethyl)indol-3-yl]benzoic acid] | > 5.00 | – |
| [2H]C([2H])([2H])c1ccc(-c2cn([C@H](c3ccccc3)c3ccccn3)c3cc(-c4c(C)noc4C)cnc23)cc1 [P-0787, 3,5-dimethyl-4-[1-[(R)-phenyl(2-pyridyl)methyl]-3-[4-(trideuteriomethyl)phenyl]pyrrolo[3,2-b]pyridin-6-yl]isoxazole] | > 5.00 | – |
| Cc1noc(C)c1-c1cnc2c(-c3ccc(C#N)nc3)cn([C@H](c3ccccc3)c3ccccn3)c2c1 [P-0731, 5-[6-(3,5-dimethylisoxazol-4-yl)-1-[(R)-phenyl(2-pyridyl)methyl]pyrrolo[3,2-b]pyridin-3-yl]pyridine-2-carbonitrile] | > 5.00 | – |
| Cc1ccc(-c2cn(CC3CCOCC3)c3cc(-c4c(C)noc4C)cnc23)cc1 [P-0793, 3,5-dimethyl-4-[3-(p-tolyl)-1-(tetrahydropyran-4-ylmethyl)pyrrolo[3,2-b]pyridin-6-yl]isoxazole] | > 5.00 | – |
| Cc1noc(C)c1-c1cnc2c(-c3ccc(B(O)O)cc3)cn([C@H](c3ccccc3)c3ccccn3)c2c1 [P-0729, [4-[6-(3,5-dimethylisoxazol-4-yl)-1-[(R)-phenyl(2-pyridyl)methyl]pyrrolo[3,2-b]pyridin-3-yl]phenyl]boronic acid] | > 5.00 | – |
| Cc1noc(C)c1-c1cnc2c(c1)c(C(c1ccccn1)c1ccccn1)cn2-c1ccc(CO)cc1 [P-0736, [4-[3-[bis(2-pyridyl)methyl]-5-(3,5-dimethylisoixazol-4-yl)pyrrolo[2,3-b]pyridin-1-yl]phenyl]methanol] | > 5.00 | – |
| Cc1cc(-c2cnc3c(-c4ccc(C(=O)O)cc4)cn([C@@H](C)c4ccccn4)c3c2)cn(C)c1=O [P-0761, 4-[6-(1,5-dimethyl-6-oxo-3-pyridyl)-1-[(1S)-1-(2-pyridyl)ethyl]pyrrolo[3,2-b]pyridin-3-yl]benzoic acid] | > 5.00 | – |
| Cc1noc(C)c1-c1cnc2c(I)cn(Cc3ccccc3C#N)c2c1 [P-0921, 2-[[6-(3,5-dimethylisoxazol-4-yl)-3-iodo-pyrrolo[3,2-b]pyridin-1-yl]methyl]benzonitrile] | – | < 1 µM |
| Cc1noc(C)c1-c1ccc2c(I)cn([C@@H](C)c3ccccn3)c2c1 [P-1051, 4-[3-iodo-1-[(1S)-1-(2-pyridyl)ethyl]indol-6-yl]-3,5-dimethyl-isoxazole] | – | 1 to 10 µM |
| COC(=O)c1ccc(-c2c[nH]c3cc(-c4c(C)noc4C)cnc23)cc1 [P-1033, methyl 4-[6-(3,5-dimethylisoxazol-4-yl)-1H-pyrrolo[3,2-b]pyridin-3-yl]benzoate] | – | 1 to 10 µM |
